Laboratory results from ChEMBL document CHEMBL3507680, “University of Dundee, Gates Library screen for HepG2 cell viability”.

Assay: Human HepG2 cell viability assay in 384 well format
Assay type: toxicity, cell-based
Parameters: dose 125 nL, time 70.5 hour; concentration not given beside the values
Conditions: HepG2 cells, read-out: Inhibition

Row | SMILES | cytotoxicity at 70.5 h [%]
1 | CS(=O)(=O)c1ccc(O[C@H]2COCCN(Cc3ccncc3)C2)cc1 | -6.23
2 | COc1cc(F)c(C(=O)NCc2cc(C)on2)c(F)c1 | -6.54
3 | CCC(C)(NCC(=O)Nc1nc(C)cs1)c1nc(C)cs1 (stereo not drawn) | -0.105
4 | COc1ncccc1-c1cc(C(N)=O)ccn1 | 19.5
5 | CCC(C)NC(=O)Nc1ccc(CN2CCOC2=O)cc1 (stereo not drawn) | 18.8
6 | CN(C)c1ccc(-c2noc([C@@H]3CCCN3)n2)cn1 | 6.36
7 | CC(C)c1nnc(NC(=O)NC2CCOc3ccccc32)s1 (stereo not drawn) | -2.44
8 | O=C1CC(C(=O)O)C2(CCN(C(=O)Nc3ccccc3Cl)CC2)N1 (stereo not drawn) | -2.72
9 | CN(CC1COc2ccccc2O1)C(=O)NCCCn1cccn1 (stereo not drawn) | -8.71
10 | Cn1cc(C(=O)N[C@@H]2CN(Cc3ccoc3)[C@@H]3CCCO[C@@H]32)cn1 | -5.02
11 | O=C(CNC(=O)c1ccc(Cl)cc1)Nc1nccs1 | 20.2
12 | CN1CC(=O)N(c2cccnc2)Cc2c(NC3CC3)ncnc21 | -0.235
13 | CN(C)CCNC(=O)C1Cc2nc(-c3ccccc3)sc2N1CC1CC1 (stereo not drawn) | -11
14 | O=C(NC1(C(=O)NC2CCCC2)CCCC1)c1ccc2[nH]ncc2c1 | -8.68
15 | Cn1cc(Cl)cc1C(=O)N1CCC2(CCCN(CC3CC3)C2=O)C1 (stereo not drawn) | 24.1
16 | O=C(c1ccco1)N1CCC2(CCCN(c3ncc(F)cn3)C2)C1 (stereo not drawn) | 13.2
17 | COCc1nc2cc(NCc3ccc(C)o3)ccc2o1 | 0.17
18 | Cc1cc(C)nc(N2CCC(C(=O)O)(n3ccc(C(C)(C)C)n3)CC2)n1 | -10.1
19 | Cn1cc(CN2CCCC3(CCCCN3S(C)(=O)=O)C2)cn1 (stereo not drawn) | -9.02
20 | O=C1CSC(c2ccsc2)c2sccc2N1 (stereo not drawn) | -18.3
21 | CC(=O)c1cccc(OCCCC(=O)N(C)Cc2cnc(C)s2)c1 | -6.22
22 | CCc1n[nH]c(C(=O)N2CCCC3(CN(C)C(=O)O3)C2)c1C (stereo not drawn) | -13.7
23 | Cc1nc(C)c(COc2ccc(S(=O)(=O)N(C)C)cc2)s1 | -22.5

Row | SMILES | cytotoxicity at 70.5 h [%]
24 | Cc1n[nH]c(C)c1CNCC(O)c1cccc(Cl)c1 (stereo not drawn) | -13.1
25 | O=C1CC(c2ccc(CO)o2)c2cnn(Cc3ccco3)c2N1 (stereo not drawn) | -7.94
26 | COc1cccc(CN2CCC(CO)(Cc3ccc(Cl)cc3)CC2)c1O | -5.98
27 | CC(C)c1nccn1-c1nccnc1C1CCCN1Cc1cccnc1 (stereo not drawn) | -1.81
28 | CC(C)CN1CC[C@@H]2[C@H](CC1)N(S(C)(=O)=O)CCS2(=O)=O | -11.1
29 | Cc1nc(N2CCC3(CCCNC3=O)C2)nc2c1CCCC2 (stereo not drawn) | -3.11
30 | CSCC[C@H](N)c1nnc(SCC(=O)Nc2ccc(Br)cc2)o1 | -18.7
31 | CCC(O)CN1CCN(C(=O)c2cccn2Cc2ccncc2)CC1 (stereo not drawn) | 21.3
32 | O=C(CC1CC2(CCNCC2)c2ccccc21)NCC1CC1 (stereo not drawn) | 11.3
33 | c1ccc(CN2CCOC[C@H]2c2nc(-c3ccncc3)c[nH]2)nc1 | 1.25
34 | O=C1NC2(CCN(CC3CC3)CC2)CC1c1ccccc1 (stereo not drawn) | -1.19
35 | COc1ccc(C)cc1CC(=O)NC(CC(=O)O)c1ccc(F)cc1 (stereo not drawn) | -18.4
36 | Nc1ncc(C(=O)N2CCC3(CCCO3)CC2)c(-c2ccccc2)n1 | -2.3
37 | CCc1ccc(CN2CCC3(CC2)CC(N2CCN(C)CC2)CO3)cc1 (stereo not drawn) | 7.28
38 | Cc1cc(O)nc(C2CCCN(Cc3ccncc3)C2)n1 (stereo not drawn) | -0.0773
39 | CN(CC(=O)N1CCCC1c1cnn(C)c1)Cc1ccccc1 (stereo not drawn) | -11.9
40 | CCCc1noc(C(C)N2CC(n3cccn3)C2)n1 (stereo not drawn) | 6.9
41 | CS(=O)(=O)c1ccc(-c2cnc(C3CCCN3)cn2)cc1 (stereo not drawn) | -11.3
42 | OCCN1CCN(Cc2coc(-c3ccc(Cl)cc3)n2)CC1 | -11.8
43 | CCC(C)Sc1ncc(-c2c(C#N)c(N)nc3c2COCC3)cn1 (stereo not drawn) | 6.03
44 | Cc1ccc(C(=O)N2CCOc3nc(C)ccc32)c(F)c1 | 26.7
45 | C[C@H](O)CNC(=O)c1cnc(-c2ccccc2)nc1O | -4.5
46 | COCC(=O)N1CCCC(C)(c2nncn2C)C1 (stereo not drawn) | -14.6

Row | SMILES | cytotoxicity at 70.5 h [%]
47 | O=C(NC1CCS(=O)(=O)C1)c1ccccc1SCc1cscn1 (stereo not drawn) | -9.17
48 | CC(=O)C1(c2ccccc2)CCN(C(=O)C2CNCCO2)CC1 (stereo not drawn) | -7.25
49 | Cc1cnn(CC(C)NCc2cc(C#N)ccc2F)c1 (stereo not drawn) | -5.57
50 | FC(F)(F)c1n[nH]c2c1CN(Cc1cn3ccccc3n1)CC2 | -6.32
51 | CCc1cnc(CN(C(C)=O)C2CCN(CCc3ccccn3)C2)o1 (stereo not drawn) | 1.82
52 | CCC(C)NC(=O)CCc1ccnc2ccccc12 (stereo not drawn) | 2.59
53 | Cc1cc(C(=O)N2CCC(O)(Cn3ccc4ccncc43)CC2)on1 | 17.8
54 | COCCN1CCN(C(=O)N2CCCC2)Cc2ccc(C)nc21 | 24.9
55 | O=C1CN(c2ccc(CNC(=O)Nc3nccs3)cc2)CCN1 | 1.2
56 | CC(C)NC(=O)[C@@H]1C[C@H]2OCC[C@H]2N(Cc2ccc3ccccc3n2)C1 | 12.8
57 | CC(=O)C(Cc1ccccc1)NC(=O)CSc1nccn1C1CC1 (stereo not drawn) | -0.98
58 | CCOC(=O)CC(NC(=O)c1cn(Cc2ccccc2F)nn1)C(C)C (stereo not drawn) | -9.35
59 | Cn1cc(C(=O)N[C@@H]2CN(Cc3cccs3)[C@@H]3CCCO[C@@H]32)cn1 | -14.7
60 | c1cnnc(N2CCCC2CNCc2cc[nH]n2)c1 (stereo not drawn) | 11
61 | O=C(c1cc(-c2ccco2)nc2c(Cl)cccc12)N1C[C@H]2CNC[C@H]2C1 | -6.09
62 | CC(C)(C)c1n[nH]c(C2CN(C(=O)Cn3ccccc3=O)CCO2)n1 (stereo not drawn) | -5.55
63 | COc1ccc(C2=CNC(C(F)(F)F)=CC2N)cc1 (stereo not drawn) | -0.00247
64 | c1cncc(CN(CCCn2ccnc2)CC2CCOC2)c1 (stereo not drawn) | -1.27
65 | Cc1occc1C(=O)N1CCCC(C2=Nc3ccccc3S(=O)(=O)N2)C1 (stereo not drawn) | -5.45
66 | CC(C)N(C)Cc1cncc2c1CCN(C(=O)c1cccc(C#N)c1)C2 | -4.95
67 | O=C(NCC1CC1)C1CN(Cc2ccncc2)Cc2ccnn2C1 (stereo not drawn) | -11.9
68 | CC1CCc2nc(O)c(C(=O)NCCN(C)C)cc2C1 (stereo not drawn) | -18.1
69 | O=C(NCCN1CCOCC1)C(OC1CCCC1)c1ccccc1 (stereo not drawn) | -3.19

Row | SMILES | cytotoxicity at 70.5 h [%]
70 | COCCN(Cc1ccoc1)C(=O)c1ccccc1OC | -1.89
71 | Cc1ncsc1CN1C[C@@H]2COC[C@]2(C(=O)NC2CC(F)(F)C2)C1 | -4.72
72 | CCOc1nnc(CN2CCN(CCOC)CC2)s1 | 16.4
73 | Cc1cc(N2CCC(Cc3cnccn3)C2)ncn1 (stereo not drawn) | -7.8
74 | Cc1ccoc1CNCc1nnc2n1CC(C(F)(F)F)CC2 (stereo not drawn) | -12.1
75 | CCOCCCC(=O)N(C)C(c1cccc(F)c1)c1ccccn1 (stereo not drawn) | -23.5
76 | CN(Cc1ccco1)C[C@H]1OC[C@@H]2CCN(Cc3ccccn3)C[C@@H]21 | -8.48
77 | CC1CCCCN1c1nc2c(c(=O)[nH]1)CCN(Cc1ccc(O)cc1)C2 (stereo not drawn) | -8.85
78 | COc1cc(C(=O)N(Cc2ccco2)C2CC2)cc2c1OCCO2 | -0.578
79 | CNC(=O)C1CN(C)CCN1c1nc(C)cc(C)n1 (stereo not drawn) | 14.1
80 | CCOc1cccc(C2CC(=O)NCc3nc(N(C)C)sc32)c1 (stereo not drawn) | -5.3
81 | Cc1nn(C)c(N(C)C)c1CNCC(O)c1ccccc1 (stereo not drawn) | 0.0769
82 | CC(C(=O)N1CCc2ccccc21)N1CCc2cncnc2C1 (stereo not drawn) | -3.31
83 | O=C(NCc1cncc2c1CCN(CC1CCOC1)C2)c1ccno1 (stereo not drawn) | -6.93
84 | COc1ccc(CN2C[C@@H](OCc3csc(C)n3)[C@H]3COC[C@H]32)cc1 | -3.55
85 | Cc1noc(C)c1CN1CC[C@H]2OCC[C@@]2(C(=O)N(C)C)C1 | -10.5
86 | Cc1cc(Cn2cc(C#N)c(=O)c3ccccc32)on1 | 8.12
87 | CC/N=c1\c(NC(=O)C(C)(C)C)c(O)oc2ccccc12 | 22.9
88 | Cc1cc(CN(C)C(=O)c2ccc(C(F)(F)F)nc2)no1 | -19.6
89 | CCCN(Cc1ccc(C(=O)NCC2COCCO2)c(=O)[nH]1)C1CC1 (stereo not drawn) | 50.6
90 | Cc1ccc(C(=O)NC2CCN(C(=O)Nc3ccccn3)CC2)o1 | 16.1
91 | O=S(=O)(c1cccc(Cl)c1)N1C[C@@H]2CCN[C@@H]2C1 | -0.439
92 | COCCN(C)C[C@@H]1CN(C(=O)c2cccc(C#N)c2)C[C@@H]1CO | 12.6

Row | SMILES | cytotoxicity at 70.5 h [%]
93 | OCC(CO)N1CCC(c2nnc(Cn3ccnc3)n2C2CC2)CC1 | 12.4
94 | C=C(C)CN(CC)Cc1nc(C2CC2)no1 | -5.54
95 | Cc1csc([C@@H]2C[C@@H]3CCN(Cc4cc(C)on4)C[C@H]3O2)n1 | -6.2
96 | Cc1nn(CC(=O)NCC2(C(N)=O)CCOCC2)c(C)c1Cl | -8.87
97 | CN(C)C(=O)Cn1cc(C(=O)N2CCCc3cccc(F)c32)nn1 | -17.3
98 | COCCN1CCC(NC(=O)C(C)C)CC1 | -1.39
99 | CC(C)Cc1nnc(NC(=O)NC(CCO)c2cccs2)s1 (stereo not drawn) | -3.34
100 | Cc1ncc2c(n1)CN(CC(=O)Nc1nccs1)CC2 | -10.4
101 | Cc1ccc(N2CCC3(CCN(C(=O)C4CCOC4)CC3)CC2)nn1 (stereo not drawn) | -3.84
102 | CCOc1ccccc1C(C(=O)O)N(C)Cc1nnc(C)o1 (stereo not drawn) | -2.69
103 | NC(=O)CCNCc1c(Cl)cccc1N1CCCC1 | -6.13
104 | CCCc1nc(C)c(C(=O)NS(=O)(=O)c2ccc(C#N)cc2)s1 | -5.99
105 | O=C(CCNc1ncccn1)Nc1ccc(Cn2cncn2)cc1 | -7.19
106 | CCN(CC)C(CNC(=O)c1cccnc1-n1cncn1)c1ccsc1 (stereo not drawn) | -7.63
107 | CC[C@]12CN3C[C@](CC)(CN(C1)C3c1[nH]c(=O)[nH]c(=O)c1C)C2=O (stereo partly drawn) | 19.3
108 | COc1ccc(-c2noc([C@@H](C)NC(=O)NC(C)(C)C)c2C(=O)O)cc1 | -10.4
109 | COCc1nc(C(=O)N2CCCC(n3ccnc3C(C)C)C2)cs1 (stereo not drawn) | -12.2
110 | CC(C)=CCC1(CO)CCCN(S(C)(=O)=O)C1 (stereo not drawn) | 1.79
111 | CN(c1ccc(C#N)cn1)C1CCCN(Cc2noc(C3CC3)n2)C1 (stereo not drawn) | -0.287
112 | O=C([C@H]1C[C@H]2OCC[C@H]2N(CCc2ccccc2)C1)N1CCCCO1 | -6.32
113 | COCCOc1ncccc1C(=O)Nc1ccc(-n2cncn2)c(F)c1 | -6.17
